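All cell lines were grown in 96-well plates and treated with compound for 48 hours. GI50: concentration for 50% inhibition of growth.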 Active and inactive are the calls of the source. No stated cut-off is given here; in the data, active = GI50 up to about 1.1 µM and inactive = higher.
Columns and labels:
Assay in all cases: DTP human tumour cell line panel, 48 h
NCI-H23 = test system: NCI-H23
BT-549 = test system: BT-549
SF-539 = test system: SF-539
MDA-N = test system: MDA-N
SF-295 = test system: SF-295
LOX IMVI = test system: LOX IMVI
OVCAR-8 = test system: OVCAR-8
HCT-116 = test system: HCT-116
NCI/ADR-RES = test system: NCI/ADR-RES
HOP-92 = test system: HOP-92
SK-MEL-28 = test system: SK-MEL-28
ACHN = test system: ACHN
SF-268 = test system: SF-268
Malme-3M = test system: Malme-3M
SW-620 = test system: SW-620
MOLT-4 = test system: MOLT-4
T47D = test system: T47D
HT-29 = test system: HT-29
SNB-19 = test system: SNB-19
HOP-62 = test system: HOP-62
K562 = test system: K562
MCF7 = test system: MCF7
U-251 = test system: U-251
IGROV-1 = test system: IGROV-1
SK-OV-3 = test system: SK-OV-3
CCRF-CEM = test system: CCRF-CEM
UACC-62 = test system: UACC-62
UO-31 = test system: UO-31
Hs-578T = test system: Hs-578T
SNB-75 = test system: SNB-75
SK-MEL-2 = test system: SK-MEL-2
NCI-H226 = test system: NCI-H226
RPMI-8226 = test system: RPMI-8226
A549 = test system: A549
SN12C = test system: SN12C
NCI-H460 = test system: NCI-H460
UACC-257 = test system: UACC-257
EKVX = test system: EKVX
MDA-MB-231 = test system: MDA-MB-231
SK-MEL-5 = test system: SK-MEL-5
PC-3 = test system: PC-3
TK-10 = test system: TK-10
SR = test system: SR
HCT-15 = test system: HCT-15
OVCAR-5 = test system: OVCAR-5
KM12 = test system: KM12
OVCAR-3 = test system: OVCAR-3
DU-145 = test system: DU-145
COLO 205 = test system: COLO 205
MDA-MB-435 = test system: MDA-MB-435
RXF 393 = test system: RXF 393
786-0 = test system: 786-0
A498 = test system: A498
OVCAR-4 = test system: OVCAR-4
HL-60 = test system: HL-60
M14 = test system: M14

For COc1ccc(C2SC(=N)Nc3c2c(C)nn3C(=O)c2ccncc2)cc1 (stereo unspecified), the GI50 (NCI-H23) was > 100 µM (inactive), the GI50 (BT-549) was > 100 µM (inactive) and the GI50 (SF-539) was > 100 µM (inactive). The GI50 (MDA-N) was > 100 µM (inactive), the GI50 (SF-295) was > 100 µM (inactive) and the GI50 (LOX IMVI) was > 100 µM (inactive). The GI50 (OVCAR-8) was > 100 µM (inactive), the GI50 (HCT-116) was > 100 µM (inactive) and the GI50 (NCI/ADR-RES) was > 100 µM (inactive). The GI50 (HOP-92) was > 100 µM (inactive), the GI50 (SK-MEL-28) was > 100 µM (inactive) and the GI50 (ACHN) was > 100 µM (inactive). The GI50 (SF-268) was > 100 µM (inactive), the GI50 (Malme-3M) was > 100 µM (inactive) and the GI50 (SW-620) was > 100 µM (inactive). For the same molecule, the GI50 (MOLT-4) was 44.5 µM (inactive), the GI50 (T47D) was 45.5 µM (inactive) and the GI50 (HT-29) was > 100 µM (inactive). For the same molecule, the GI50 (SNB-19) was > 100 µM (inactive), the GI50 (HOP-62) was > 100 µM (inactive) and the GI50 (K562) was 64.7 µM (inactive). The GI50 (MCF7) was 75.2 µM (inactive), the GI50 (U-251) was > 100 µM (inactive) and the GI50 (IGROV-1) was 89.5 µM (inactive). For the same molecule, the GI50 (SK-OV-3) was > 100 µM (inactive), the GI50 (CCRF-CEM) was 29.4 µM (inactive) and the GI50 (UACC-62) was > 100 µM (inactive). The GI50 (UO-31) was > 100 µM (inactive), the GI50 (Hs-578T) was > 100 µM (inactive) and the GI50 (SNB-75) was > 100 µM (inactive). The GI50 (SK-MEL-2) was > 100 µM (inactive), the GI50 (NCI-H226) was > 100 µM (inactive) and the GI50 (RPMI-8226) was 57.3 µM (inactive). For the same molecule, the GI50 (A549) was > 100 µM (inactive), the GI50 (SN12C) was > 100 µM (inactive) and the GI50 (NCI-H460) was 42.3 µM (inactive). The GI50 (UACC-257) was > 100 µM (inactive), the GI50 (EKVX) was > 100 µM (inactive) and the GI50 (MDA-MB-231) was > 100 µM (inactive). The GI50 (SK-MEL-5) was 45.7 µM (inactive), the GI50 (PC-3) was > 100 µM (inactive) and the GI50 (TK-10) was > 100 µM (inactive). For the same molecule, the GI50 (SR) was 21.2 µM (inactive), the GI50 (HCT-15) was greater than 100 µM and the GI50 (OVCAR-5) was > 100 µM (inactive). For the same molecule, the GI50 (KM12) was > 100 µM (inactive), the GI50 (OVCAR-3) was 40.4 µM (inactive) and the GI50 (DU-145) was > 100 µM (inactive). The GI50 (COLO 205) was 57.7 µM (inactive), the GI50 (MDA-MB-435) was 70.6 µM (inactive) and the GI50 (RXF 393) was > 100 µM (inactive). For the same molecule, the GI50 (786-0) was > 100 µM (inactive), the GI50 (A498) was 98.4 µM (inactive) and the GI50 (OVCAR-4) was 43.3 µM (inactive). The GI50 (HL-60) was 87.1 µM (inactive) and the GI50 (M14) was > 100 µM (inactive).
